The compounds below were run on MDA-MB-231 cells (assay: Extracellular lactate production inhibition after 4 h, MDA-MB-231). Settings: Homo sapiens, MDA-MB-231.

IC50 | Structure (SMILES)
0.01 to 0.1 µM | COC(=O)c1ccc(C#Cc2cc(F)ccc2NS(=O)(=O)c2c(C)ccc3cccnc23)cn1 [Compound 134, methyl 5-{2-[5-fluoro-2-(7-methylquinoline-8-sulfonamido)phenyl]ethynyl}pyridine-2-carboxylate]
1 to 100 µM | O=C(O)c1ccc(C#Cc2ccccc2NS(=O)(=O)c2cccc(N3CCOCC3)c2)cn1 [Compound 105, 5-(2-{2-[3-(morpholin-4-yl)benzenesulfonamido]phenyl}-ethynyl)pyridine-2-carboxylic acid]
0.01 to 0.1 µM | COc1ccc(S(=O)(=O)Nc2ccc(F)cc2C#Cc2ccc(C(=O)O)nc2)c2ncccc12 [Compound 185, 5-{2-[5-fluoro-2-(5-methoxyquinoline-8-sulfonamido)phenyl]ethynyl}pyridine-2-carboxylic acid]
1 to 100 µM | COc1ccc(S(=O)(=O)Nc2ccccc2C#Cc2ccc(C(=O)O)c(C#N)c2)c2ccccc12 [Compound 21, 2-cyano-4-{2-[2-(4-methoxynaphthalene-1-sulfonamido)phenyl]ethynyl}benzoic acid]
0.01 to 0.1 µM | O=C(O)c1ccc(C#Cc2ccccc2NS(=O)(=O)c2c(Cl)cc(Cl)c3cccnc23)cn1 [Compound 306, 5-{2-[2-(5,7-dichloroquinoline-8-sulfonamido)phenyl]ethynyl}pyridine-2-carboxylic acid]
0.001 to 0.01 µM | CCNc1cc(C#Cc2ccccc2NS(=O)(=O)c2ccc(OC)c3cccnc23)cnc1C(=O)O [Compound 376, 3-(ethylamino)-5-{2-[2-(5-methoxyquinoline-8-sulfonamido)phenyl]ethynyl}pyridine-2-carboxylic acid]
1 to 100 µM | COc1cccc(S(=O)(=O)Nc2ccc(F)cc2C#Cc2cnc(C(=O)O)c(C)c2)c1 [Compound 322, 5-{2-[5-fluoro-2-(3-methoxybenzene-sulfonamido)phenyl]ethynyl}-3-methylpyridine-2-carboxylic acid]
0.001 to 0.01 µM | COc1cc(C(=O)O)ncc1C#Cc1ccccc1N(C=O)Cc1ccc(-c2ccccc2OC)cc1 [Compound 215, 4-methoxy-5-(2-{2-[N-({2′-methoxy-[1,1′-biphenyl]-4-yl}methyl)formamido]phenyl}-ethynyl)pyridine-2-carboxylic acid]
1 to 100 µM | Cc1nc(C(=O)O)ccc1C#Cc1ccccc1NS(=O)(=O)c1ccc2ccccc2c1 [Compound 51, 6-methyl-5-{2-[2-(naphthalene-2-sulfonamido)phenyl]ethynyl}pyridine-2-carboxylic acid]
0.01 to 0.1 µM | Cc1ccc2cccnc2c1S(=O)(=O)Nc1ccccc1C#Cc1cnc(C(=O)O)cc1-c1ccccc1 [Compound 226, 5-{2-[2-(7-methylquinoline-8-sulfonamido)phenyl]ethynyl}-4-phenylpyridine-2-carboxylic acid]
0.1 to 1 µM | COc1cccc(-c2cccc(S(=O)(=O)Nc3ccccc3C#Cc3ccc(C(=O)O)nc3)c2)n1 [Compound 127, 5-(2-{2-[3-(6-methoxypyridin-2-yl)benzenesulfonamido]phenyl}-ethynyl)pyridine-2-carboxylic acid]
0.1 to 1 µM | O=CN(Cc1cccc(Oc2ccccc2)c1)c1ccccc1C#Cc1ccc(C(=O)O)nc1 [Compound 203, 5-[2-(2-{N-[(3-phenoxyphenyl)methyl]-formamido}phenyl)ethynyl]pyridine-2-carboxylic acid]
0.1 to 1 µM | COC(=O)c1ccc(C#Cc2ccccc2NS(=O)(=O)c2ccccc2-c2ccccc2)cn1 [Compound 135, methyl 5-[2-(2-{[1,1′-biphenyl]-2-sulfonamido}phenyl)ethynyl]pyridine-2-carboxylate]
0.1 to 1 µM | COc1ncc(S(=O)(=O)Nc2ccccc2C#Cc2ccc(C(=O)O)cc2)cc1Br [Compound 48, 4-{2-[2-(5-bromo-6-methoxypyridine-3-sulfonamido)phenyl]ethynyl}benzoic acid]
0.01 to 0.1 µM | COc1ccc(S(=O)(=O)Nc2cc(Cl)c(Cl)cc2C#Cc2ccc(C(=O)O)nc2)c2ncccc12 [Compound 190, 5-{2-[4,5-dichloro-2-(5-methoxyquinoline-8-sulfonamido)phenyl]ethynyl}pyridine-2-carboxylic acid]
1 to 100 µM | O=C(O)c1ccc(C#Cc2ccccc2NS(=O)(=O)c2cnc3ccccc3c2)cc1 [Compound 40, 4-{2-[2-(quinoline-3-sulfonamido)phenyl]ethynyl}benzoic acid]
0.01 to 0.1 µM | O=C(O)c1ccc(C#Cc2ccccc2NS(=O)(=O)c2c(Br)ccc3c(Cl)ccnc23)cn1 [Compound 319, 5-{2-[2-(7-bromo-4-chloroquinoline-8-sulfonamido)phenyl]ethynyl}pyridine-2-carboxylic acid]

Continued, compound first:

Structure (SMILES) | IC50
CC(C)Oc1ccc2cccnc2c1S(=O)(=O)Nc1ccccc1C#Cc1ccc(C(=O)O)nc1 [Compound 211, 5-(2-{2-[7-(propan-2-yloxy)quinoline-8-sulfonamido]phenyl}ethynyl)pyridine-2-carboxylic acid] | 0.01 to 0.1 µM
CNc1cc(C#Cc2ccccc2NS(=O)(=O)c2c(C)ccc3cccnc23)cnc1C(=O)O [Compound 206, 3-(methylamino)-5-{2-[2-(7-methylquinoline-8-sulfonamido)phenyl]-ethynyl}pyridine-2-carboxylic acid] | 0.001 to 0.01 µM
Cc1c(C)c(S(=O)(=O)Nc2ccccc2C#Cc2ccc(C(=O)O)nc2)c2ncccc2c1C [Compound 305, 5-{2-[2-(5,6,7-trimethylquinoline-8-sulfonamido)phenyl]ethynyl}pyridine-2-carboxylic acid] | 0.01 to 0.1 µM
Cc1cnc2c(S(=O)(=O)Nc3ccccc3C#Cc3ccc(C(=O)O)nc3)cccc2c1 [Compound 262, 5-[2-(3-Methyl-quinoline-8-sulfonyl-amino)-phenylethynyl]-pyridine-2-carboxylic acid] | 0.1 to 1 µM
COc1cc(C(=O)O)ncc1C#Cc1ccccc1NS(=O)(=O)c1cccc2c(N(C)C)ccnc12 [Compound 418, 5-[2-(4-Dimethylamino-quinoline-8-sulfonylamino)-phenylethynyl]-4-methoxy-pyridine-2-carboxylic acid] | 0.1 to 1 µM
Cc1ccc2c(C)ccnc2c1S(=O)(=O)Nc1ccccc1C#Cc1ccc(C(=O)O)nc1 [Compound 310, 5-{2-[2-(4,7-dimethylquinoline-8-sulfonamido)phenyl]ethynyl}pyridine-2-carboxylic acid] | 0.01 to 0.1 µM
O=C(O)c1ccc(C#Cc2ccccc2NS(=O)(=O)c2ccc(-c3ccccc3)cc2)cn1 [Compound 291, 5-[2-(2-{[1,1′-biphenyl]-4-sulfonamido}phenyl)ethynyl]pyridine-2-carboxylic acid] | 0.01 to 0.1 µM
COc1cc(C(=O)O)ncc1C#Cc1ccccc1NS(=O)(=O)N1CCC2CCCCC21 (stereo not shown) [Compound 219, 4-methoxy-5-(2-{2-[(octahydro-1H-indole-1-sulfonyl)amino]phenyl}ethynyl)pyridine-2-carboxylic acid] | 0.1 to 1 µM
Cc1cc(C#Cc2ccccc2NS(=O)(=O)c2cccc3ccccc23)cnc1C(=O)O [Compound 74, 3-methyl-5-{2-[2-(naphthalene-1-sulfonamido)phenyl]ethynyl}pyridine-2-carboxylic acid] | 0.1 to 1 µM
Cc1ccc2cccnc2c1S(=O)(=O)Nc1ccccc1C#Cc1ccc(C(=O)OCC(O)CO)nc1 (stereo not shown) [Compound 396, 2,3-dihydroxypropyl 5-{2-[2-(7-methylquinoline-8-sulfonamido)phenyl]ethynyl}pyridine-2-carboxylate] | 0.001 to 0.01 µM
O=C(O)c1ccc(C#Cc2ccccc2NS(=O)(=O)c2ccccc2-c2ccccc2)cn1 [Compound 141, 5-[2-(2-{[1,1′-biphenyl]-2-sulfonamido}phenyl)ethynyl]pyridine-2-carboxylic acid] | 0.1 to 1 µM
Cc1ccc2cccnc2c1S(=O)(=O)Nc1ccccc1C#Cc1ccc(C(=O)OCC2COC(C)(C)O2)nc1 (stereo not shown) [Compound 404, (2,2-dimethyl-1,3-dioxolan-4-yl)methyl 5-{2-[2-(7-methylquinoline-8-sulfonamido)phenyl]ethynyl}pyridine-2-carboxylate] | 0.1 to 1 µM
Cc1ccc2cccnc2c1S(=O)(=O)Nc1ccccc1C#Cc1cnc(C(=O)O)c2c1NCCN2 [Compound 415, 8-{2-[2-(7-methylquinoline-8-sulfonamido)phenyl]ethynyl}-1H,2H,3H,4H-pyrido[3,4-b]pyrazine-5-carboxylic acid] | 0.1 to 1 µM
COc1ccc(S(=O)(=O)Nc2ccccc2C#Cc2ccc(C(N)=O)cc2)c2ccccc12 [Compound 261, 4-[2-(4-Methoxy-naphthalene-1-sulfonylamino)-phenylethynyl]-benzamide] | 1 to 100 µM
COC(=O)c1ncc(C#Cc2cc(F)ccc2NS(=O)(=O)c2ccc3c(c2)oc2ccccc23)cc1C [Compound 318, methyl 5-[2-(5-fluoro-2-{8-oxatricyclo[7.4.0.0^2,7]trideca-1(9),2(7),3,5,10,12-hexaene-5-sulfonamido}phenyl)ethynyl]-3-methylpyridine-2-carboxylate] | 1 to 100 µM
CCc1ccc2cccnc2c1S(=O)(=O)Nc1ccccc1C#Cc1cnc(C(=O)O)cc1OC [Compound 369, 5-{2-[2-(7-ethylquinoline-8-sulfonamido)phenyl]ethynyl}-4-methoxypyridine-2-carboxylic acid] | 0.001 to 0.01 µM
Cc1cc(C#Cc2ccccc2NS(=O)(=O)c2c(C)ccc3cccnc23)cnc1C(=O)O [Compound 102, 3-methyl-5-{2-[2-(7-methylquinoline-8-sulfonamido)phenyl]ethynyl}pyridine-2-carboxylic acid] | 0.01 to 0.1 µM
COc1ccc(S(=O)(=O)Nc2ccc(C)cc2C#Cc2ccc(C(=O)O)nc2)c(C)c1C [Compound 413, 5-{2-[2-(4-methoxy-2,3-dimethylbenzenesulfonamido)-5-methylphenyl]ethynyl}pyridine-2-carboxylic acid] | 0.01 to 0.1 µM
O=C(O)c1ccc(C#Cc2ccccc2NS(=O)(=O)c2ccc(C3=CCCCC3)cc2)cn1 [Compound 177, 5-(2-{2-[4-(cyclohex-1-en-1-yl)benzenesulfonamido]phenyl}-ethynyl)pyridine-2-carboxylic acid] | 0.1 to 1 µM
COc1ccc(S(=O)(=O)Nc2ccccc2C#Cc2ccc(C(=O)O)c(OC)c2)c(C)c1 [Compound 67, 2-methoxy-4-{2-[2-(4-methoxy-2-methylbenzenesulfonamido)phenyl]-ethynyl}benzoic acid] | 0.1 to 1 µM
